# Results taken from patent US20140023611A1 (priority 2010, published 2014).
# Test system: not listed separately
# Test: Fecal recovery of orally administered compounds
# Type: in vivo, Sprague-Dawley rats
# Conditions: Structure (I) examples, Table 16; rat, oral gavage, feces collected until 48 hr after dosing
# Text: (§1) The animals were kept in metabolic cages and feces were collected from the time of dosing until 48 hr after dosing. Upon collection, feces were dried by lyophilization and ground to a visually homogenous powder. Duplicate samples of ground feces from each individual animal were weighed out and extracted using organic solvent. […] Extraction conditions were not optimized for individual compounds, and thus may represent a minimal level of recovery.
# as §1, with “collection, feces was dried by” for “collection, feces were dried by”
# as §1, with “collection, feces was dried by” for “collection, feces were dried by”
# The animals were kept in metabolic cages and feces were collected from the time of dosing until 48 hr after dosing. Upon collection, feces was dried by lyophilization and ground to a visually homogenous powder. Duplicate samples of ground feces from each individual animal were weighed out and extracted using organic solvent.
row,SMILES,% recovered in feces
1,"O=C(O)CCOCCOCCOCCNC(=O)c1cccc(SCc2cccc(C(=O)Nc3ccc(Cl)cc3-c3cc(C(=O)NCc4cccc(C(F)(F)F)c4)ccn3)c2)c1 [Example 264, 1-(3-(3-(4-chloro-2-(4-(3-(trifluoromethyl)benzylcarbamoyl)pyridin-2-yl)phenylcarbamoyl)benzylthio)phenyl)-1-oxo-5,8,11-trioxa-2-azatetradecan-14-oic acid]",<20%

# Test system: not listed separately
# Test: Stability of compounds in simulated gastric fluid (SGF)
# Type: in vitro ADME
# Conditions: simulated gastric fluid (3 mg/mL pepsin), incubation time 6 hr, relative to t=0
# Procedure, shortened: (§2)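 Compounds at […] were incubated 3 or 6 hr in USP simulated gastric fluid with 3 mg/mL pepsin or simulated intestinal fluid with 3 mg/mL pancreatin. Remaining compound was quantified by HPLC-UV or HPLC-MS peak area % and reported as percent of the t=0 level in the same medium.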
row,SMILES,"% remaining, SGF"
1,"O=C(O)CCOCCOCCOCCNC(=O)c1cccc(SCc2cccc(C(=O)Nc3ccc(Cl)cc3-c3cc(C(=O)NCc4cccc(C(F)(F)F)c4)ccn3)c2)c1 [Example 264, 1-(3-(3-(4-chloro-2-(4-(3-(trifluoromethyl)benzylcarbamoyl)pyridin-2-yl)phenylcarbamoyl)benzylthio)phenyl)-1-oxo-5,8,11-trioxa-2-azatetradecan-14-oic acid]",40-60%

# Test system: not listed separately
# Test: Stability of compounds in simulated intestinal fluid (SIF)
# Type: in vitro ADME
# Conditions: simulated intestinal fluid (3 mg/mL pancreatin), incubation time 6 hr, relative to t=0
# Procedure, shortened: as §2
row,SMILES,"% remaining, SIF"
1,"O=C(O)CCOCCOCCOCCNC(=O)c1cccc(SCc2cccc(C(=O)Nc3ccc(Cl)cc3-c3cc(C(=O)NCc4cccc(C(F)(F)F)c4)ccn3)c2)c1 [Example 264, 1-(3-(3-(4-chloro-2-(4-(3-(trifluoromethyl)benzylcarbamoyl)pyridin-2-yl)phenylcarbamoyl)benzylthio)phenyl)-1-oxo-5,8,11-trioxa-2-azatetradecan-14-oic acid]",>80%

# Target: T1, rat NaP2b (SLC34A2) (Rattus norvegicus, UniProt Q9JJ09)
# T1 construct: host or cells: HEK293
# T1 sequence (Q9JJ09 1-695): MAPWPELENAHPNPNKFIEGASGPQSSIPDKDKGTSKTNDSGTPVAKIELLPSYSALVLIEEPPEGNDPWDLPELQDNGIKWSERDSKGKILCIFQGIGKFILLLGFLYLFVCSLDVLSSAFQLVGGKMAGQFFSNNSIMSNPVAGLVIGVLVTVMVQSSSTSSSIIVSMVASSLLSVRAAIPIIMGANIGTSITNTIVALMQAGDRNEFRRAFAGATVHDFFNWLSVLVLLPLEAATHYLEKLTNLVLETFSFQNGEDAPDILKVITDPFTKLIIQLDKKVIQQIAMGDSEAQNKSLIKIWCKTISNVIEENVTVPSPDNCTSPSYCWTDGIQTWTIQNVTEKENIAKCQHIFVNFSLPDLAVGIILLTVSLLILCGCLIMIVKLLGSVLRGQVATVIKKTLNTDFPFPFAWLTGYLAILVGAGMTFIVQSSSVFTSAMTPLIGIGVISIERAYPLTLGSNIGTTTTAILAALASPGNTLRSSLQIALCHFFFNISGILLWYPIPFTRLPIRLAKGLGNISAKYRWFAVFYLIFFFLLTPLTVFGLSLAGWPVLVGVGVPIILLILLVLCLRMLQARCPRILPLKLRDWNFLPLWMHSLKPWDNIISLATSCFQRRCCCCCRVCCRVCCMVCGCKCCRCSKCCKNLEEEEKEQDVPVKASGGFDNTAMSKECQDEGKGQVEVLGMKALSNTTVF
# Test: Inhibition of NaP2b-mediated Pi (33P) uptake in transfected HEK293 cells, rat NaP2b
# Type: cell-based
# Conditions: 33P Pi uptake, 0.1 mM phosphate, value given as pIC50 range
# Procedure, shortened: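 The cells transiently expressed NaP2b after Lipofectamine transfection. Each compound was run in duplicate over twelve concentrations, 0.1 nM–30 uM.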
row,SMILES,IC50
1,"O=C(O)CCOCCOCCOCCNC(=O)c1cccc(SCc2cccc(C(=O)Nc3ccc(Cl)cc3-c3cc(C(=O)NCc4cccc(C(F)(F)F)c4)ccn3)c2)c1 [Example 264, 1-(3-(3-(4-chloro-2-(4-(3-(trifluoromethyl)benzylcarbamoyl)pyridin-2-yl)phenylcarbamoyl)benzylthio)phenyl)-1-oxo-5,8,11-trioxa-2-azatetradecan-14-oic acid]",10000 to 31600 nM

# Target: T1, rat NaP2b (SLC34A2)
# Test: NaP2b-mediated Pi transport (33P uptake) in transfected HEK293 cells, rat NaP2b
# Type: cell-based
# Conditions: Structure (III) examples, Table 2; HEK293, 0.1 mM phosphate; read-out: pIC50 range for rat Nap2b (converted)
# Procedure: HEK293 cells were obtained from the American Type Culture collection and propagated per their instructions. Expression clones for rat and human NaP2b (SLC34A2) were obtained from Open Biosystems (Catalog numbers MRN1768-9510282, and MHS1010-99823026, respectively). The sequence of the human protein was mutated to insert a threonine after residue 37, and to introduce a N39D mutation.
# (§3) The rate of phosphate (Pi) uptake into HEK293 cells was measured using a modification of the method described by Mohrmann et al. (Mohrmann, I., Mohrmann, M., Biber, J., and Murer, H. (1986) Am. J. Phys. 250(3 Pt 1):G323-30.) Transfected HEK293 cells were treated with a pharmacological agent to minimize endogenous PiT-mediated phosphate transport activity, such that the only remaining sodium-dependent phosphate transport activity is that which was bestowed by introduction of the NaP2b genes.
# (§4) Cells were seeded into 96-well plates at 25,000 cells/well and cultured overnight. Lipofectamine 2000 (Invitrogen) was used to introduce the NaP2b cDNA, and the cells were allowed to approach confluence during a second overnight incubation. […] Cells were then overlayed with either choline uptake buffer or sodium uptake buffer (14 mM Tris, 137 mM sodium chloride, 5.4 mM KCl, 2.8 mM CaCl2, 1.2 mM MgSO4, 100 uM KH2PO4, PiT-silencing agent, 1 mg/mL Bovine Serum Albumin, pH 7.4) containing 6-9 uCi/mL ^33P orthophosphoric acid (Perkin Elmer) and test compound. Each compound was tested at twelve concentrations ranging from 0.1 nM to 30 uM. Assays were run in duplicate.
# After incubation for 3-30 minutes at room temperature, assay mixtures were removed, and the cells were washed twice with ice cold stop solution (137 mM sodium chloride, 14 mM Tris, pH 7.4). Cells were lysed by addition of 20 μL 0.1% Tween 80 followed by 100 μL scintillation fluid, and counted using a TopCount (Perkin Elmer).
# pIC50 (the negative log of the IC50) values of the test compounds were calculated using GraphPad Prism.
# HEK293 cells were obtained from the American Type Culture collection and propagated per their instructions. Expression clones for rat and mouse NaP2b (SLC34A2) cDNAs were obtained from Open Biosystems (Catalog numbers MRN1768-9510282 and MMM1013-98478398 respectively).
# as §3, with “phosphate” for “phosphate (Pi)”
# as §4, with “agent, 0.1% wt/v bovine serum albumin,” for “agent, 1 mg/mL Bovine Serum Albumin,”, “Each compounds” for “Each compound”
# After incubation for 3-30 minutes at room temperature, assay mixtures were removed, and the cells were washed twice with ice cold stop solution (137 mM sodium chloride, 14 mM Tris, pH 7.4).
row,SMILES,IC50
1,O=C(O)CCSCc1cccc(C(=O)Nc2ccc(N3CCCCC3)cc2C(=O)Nc2cnc(-c3cccc(C(F)(F)F)c3)cn2)c1 [Example 12],1000 to 7940 nM

# Same assay, conditions: Structure (V) examples, Table 2; rat NaP2b, HEK293; read-out: pIC50 Range (converted)
row,SMILES,IC50
1,"O=C(Nc1ccc(N2CCCCC2)cc1C(=O)N/N=C/c1ccc(Cl)c(C(F)(F)F)c1)c1cccc(Cc2nc(CCO)cs2)c1 [Ex. 45, (E)-N-(2-(2-(4-chloro-3-(trifluoromethyl)benzylidene)hydrazine-carbonyl)-4-(piperidin-1-yl)phenyl)-3-((4-(2-hydroxyethyl)thiazol-2-yl)methyl)benzamide]",100 to 794 nM
2,O=C(Nc1ccc(N2CCCCC2)cc1C(=O)N/N=C/c1ccc(Cl)c(C(F)(F)F)c1)c1cccc(C#CCCO)c1 [Ex. 31],10 to 79.4 nM
3,[N-]=[N+]=NCCOCCOCCOCCNCc1cccc(C(=O)Nc2ccc(N3CCCCC3)cc2C(=O)N/N=C/c2ccc(Cl)c(C(F)(F)F)c2)c1 [Ex. 32],100 to 794 nM
4,O=C(CCOCCOCCOCCOCCOCCOCCOCCOCCSCc1cccc(C(=O)Nc2ccc(N3CCCCC3)cc2C(=O)N/N=C/c2ccc(Cl)c(C(F)(F)F)c2)c1)N[C@H]1C(O)O[C@H](CO)[C@@H](O)[C@@H]1O (stereo partly shown) [Ex. 28],10000 to 100000 nM
5,[N-]=[N+]=NCCOCCOCCOCCNC(=O)C1CCN(Cc2cccc(C(=O)Nc3ccc(N4CCCCC4)cc3C(=O)N/N=C/c3ccc(Cl)c(C(F)(F)F)c3)c2)CC1 [Ex. 34],100 to 794 nM
6,CC(=O)N[C@@H](CCCCNC(=O)CCSCc1cccc(C(=O)Nc2ccc(N3CCCCC3)cc2C(=O)N/N=C/c2ccc(Cl)c(C(F)(F)F)c2)c1)C(=O)O [Ex. 35],1000 to 7940 nM
7,O=C(Nc1ccc(N2CCCCC2)cc1C(=O)N/N=C/c1ccc(Cl)c(C(F)(F)F)c1)c1cccc(Cn2cc(CCOCCOCCOCCNC(=O)C(O)C(O)C(=O)O)nn2)c1 (stereo not shown) [Ex. 27],10000 to 100000 nM
8,[N-]=[N+]=NCCOCCOCCOCCNC(=O)CCSCc1cccc(C(=O)Nc2ccc(N3CCCCC3)cc2C(=O)N/N=C/c2ccc(Cl)c(C(F)(F)F)c2)c1 [Ex. 33],100 to 794 nM
9,O=C(Nc1ccc(Cl)cc1C(=O)N/N=C/c1ccc(Cl)c(C(F)(F)F)c1)c1cccc(Cn2cc(CCO)nn2)c1 [Ex. 30],10 to 79.4 nM
10,O=C(O)CCOCCOCCOCCOCCOCCOCCOCCOCCSCc1cccc(C(=O)Nc2ccc(Cl)cc2C(=O)N/N=C/c2ccc(Cl)c(C(F)(F)F)c2)c1 [Ex. 29],100 to 794 nM

# Next, values leading:
row,IC50,SMILES
1,1000 to 7940 nM,NCc1cn(Cc2cccc(C(=O)Nc3ccc(N4CCCCC4)cc3C(=O)N/N=C/c3ccc(Cl)c(C(F)(F)F)c3)c2)nn1 [Example 10]
2,100 to 794 nM,O=C(O)c1ccc(-c2cn(Cc3cccc(C(=O)Nc4ccc(N5CCCCC5)cc4C(=O)N/N=C/c4ccc(Cl)c(C(F)(F)F)c4)c3)nn2)cc1 [Example 12]
3,100 to 794 nM,"O=C(CCSCc1cccc(C(=O)Nc2ccc(N3CCCCC3)cc2C(=O)N/N=C/c2ccc(Cl)c(C(F)(F)F)c2)c1)Nc1ccc(B(O)O)cc1 [Ex. 46, (E)-4-(3-(3-(2-(2-(4-chloro-3-(trifluoromethyl)benzylidene)hydrazinecarbonyl)-4-(piperidin-1-yl)phenylcarbamoyl)benzylthio)propanamido)phenylboronic acid]"
4,10000 to 100000 nM,O=C(Nc1ccc(N2CCCCC2)cc1C(=O)N/N=C/c1ccc(Cl)c(C(F)(F)F)c1)c1cccc(Cn2cc(CCCP(=O)(O)O)nn2)c1 [Example 26]
5,100 to 794 nM,O=C(Nc1ccc(N2CCCCC2)cc1C(=O)N/N=C/c1ccc(Cl)c(C(F)(F)F)c1)c1cccc(Cn2cc(CO)nn2)c1 [Example 8]
6,100 to 794 nM,"COCCNC(=O)CC[S+]([O-])Cc1cccc(C(=O)Nc2ccc(N3CCCCC3)cc2C(=O)N/N=C/c2ccc(Cl)c(C(F)(F)F)c2)c1 (stereo not shown) [Ex. 51, (E)-N-(2-(2-(4-chloro-3-(trifluoromethyl)benzylidene)hydrazinecarbonyl)-4-(piperidin-1-yl)phenyl)-3-((3-(2-methoxyethylamino)-3-oxopropylsulfinyl)methyl)benzamide]"
7,1000 to 7940 nM,NCCOCCOCCOCCc1cn(Cc2cccc(C(=O)Nc3ccc(N4CCCCC4)cc3C(=O)N/N=C/c3ccc(Cl)c(C(F)(F)F)c3)c2)nn1 [Example 25]
8,1000 to 7940 nM,NC(Cc1cn(Cc2cccc(C(=O)Nc3ccc(N4CCCCC4)cc3C(=O)N/N=C/c3ccc(Cl)c(C(F)(F)F)c3)c2)nn1)C(=O)O (stereo not shown) [Example 11]

# Test system: not listed separately
# Test: Determination of compound Cmax and AUC after oral gavage (plasma LC-MS/MS)
# Type: in vivo, Sprague-Dawley rats
# Conditions: Sprague-Dawley, rat, plasma, po, Structure (I) examples, Table 15, actual oral dose 3-15 mg/kg, plasma 0.5-4 h
# Procedure, shortened: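 Plasma exposure measured by LC-MS/MS after acetonitrile precipitation with internal standard, quantified against a standard curve made in plasma. Compound given orally by gavage to Sprague-Dawley rats at nominal 2.5 or 10 mg/kg, with K2EDTA plasma sampled at 0.5, 1, 2 and 4 h.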
SMILES,AUC,Cmax
"O=C(O)CCOCCOCCOCCNC(=O)c1cccc(SCc2cccc(C(=O)Nc3ccc(Cl)cc3-c3cc(C(=O)NCc4cccc(C(F)(F)F)c4)ccn3)c2)c1 [Example 264, 1-(3-(3-(4-chloro-2-(4-(3-(trifluoromethyl)benzylcarbamoyl)pyridin-2-yl)phenylcarbamoyl)benzylthio)phenyl)-1-oxo-5,8,11-trioxa-2-azatetradecan-14-oic acid]",< 10 ng·h/mL,< 10 ng/mL
